Experimental data taken from article PMC11189555, “Aryl amino acetamides prevent Plasmodium falciparum ring development via targeting the lipid-transfer protein PfSTART1” (Nature Communications, 2024).

Key:
[1] = biological target: T1, PfSTART1 in parasite lysate (Plasmodium falciparum, UniProt Q8I298); assay: Solvent profiling Western Blot (solvent induced protein precipitation); format: binding; details: 10 µM W-991 vs DMSO, 0-25% AEF
T1 construct: endogenous in cells; host or cells: P. falciparum 3D7 schizonts, NP40-soluble lysate
Procedure: 3D7 parasites at schizont stage were harvested with 10 x pellet volume of 0.15% saponin in PBS. To extract soluble material, 10 x pellet volume of 0.4% NP40 (IGEPAL CA-630, Sigma-Aldrich) in PBS with 1x Complete Protease cocktail tablet (Sigma-Aldrich) was added to the parasite pellets and 3 cycles of freeze/thawing was performed. Samples were then mechanically sheared by passage through 25 G and 30 G needles before lysate was cleared via centrifugation at 16,000 g x 30 min at 4 °C. Soluble fractions were collected and stored at −80 °C until use.
For the solvent challenge, lysate was subjected to either W-991 (10 µM) or DMSO (0.1%) treatment for 3 min before aliquoted into final concentrations of 0-25% of Acetic acid/Ethanol/Formic acid (AEF) at a 50:50:0.1 (v/v/v)[25],[26]. The treated lysate and AEF mixture was incubated at 37 °C for 20 min at 800 rpm before aggregates were pelleted at 17,000 g x 20 min at 4 °C. Soluble fractions were removed, added to the final concentration of 1x NuPAGE LDS Sample Buffer (Invitrogen) with 1:100 2-mercaptoethanol (Sigma Aldrich) and boiled for 3 min. Proteins were separated on an 4-12% acrylamide gel (NuPAGE, Invitrogen) and subsequently transferred by electroblotting onto nitrocellulose membranes. Blots were probed with primary antibody anti-PfSTART1 (1:1000), followed by secondary antibody anti-rabbit-HRP (1:4000, Merck Millipore). […]

[2] = tested on: parasitophorous vacuole membrane of newly invaded merozoites; assay: Lattice light sheet imaging and vacuole tracking; format: cell-based, Plasmodium falciparum; details: 60 nM W-991 vs DMSO
Procedure: Parasites were sorbitol synchronised at days 5 and 2 prior to filming. To prepare the parasites for filming, culture was loaded on LS columns attached to MACS MultiStand (Miltenyi Biotec) to isolate late-stage parasites. Imaging medium was prepared by adding 10 μM Trolox (Santa Cruz 53188-07-1) to the culture medium. To compare the effect of drug treatment on parasite invasion, either 60 nM of W-991 or an equivalent DMSO concentration was added to the imaging medium. RBCs were resuspended at 0.5% hematocrit in RPMI-HEPES supplemented with 0.2% sodium bicarbonate and stained with 1.5 μM Di-4-[…] (Invitrogen D36802) membrane marker for 1 h at 37 °C. The stained RBCs were then washed 3 x and resuspended in imaging medium. Purified schizonts were resuspended in culture medium and incubated with 25 nM Mitotracker Deep Red FM (Invitrogen M22426) for 30 min at 37 °C, 5% CO2. The stained schizonts were then pelleted and the supernatant removed before resuspending the schizonts in the imaging medium. Before imaging, imaging medium with drug was loaded to a well and imaging medium with DMSO control was loaded to another well on an 8-well glass bottom plate (Ibidi 80807). Stained RBCs and stained schizonts were then added to each well and let settle for 30 min. The imaging experiments were performed on Zeiss Lattice Lightsheet 7. […]

T1 sequence (Q8I298 entry or part of it): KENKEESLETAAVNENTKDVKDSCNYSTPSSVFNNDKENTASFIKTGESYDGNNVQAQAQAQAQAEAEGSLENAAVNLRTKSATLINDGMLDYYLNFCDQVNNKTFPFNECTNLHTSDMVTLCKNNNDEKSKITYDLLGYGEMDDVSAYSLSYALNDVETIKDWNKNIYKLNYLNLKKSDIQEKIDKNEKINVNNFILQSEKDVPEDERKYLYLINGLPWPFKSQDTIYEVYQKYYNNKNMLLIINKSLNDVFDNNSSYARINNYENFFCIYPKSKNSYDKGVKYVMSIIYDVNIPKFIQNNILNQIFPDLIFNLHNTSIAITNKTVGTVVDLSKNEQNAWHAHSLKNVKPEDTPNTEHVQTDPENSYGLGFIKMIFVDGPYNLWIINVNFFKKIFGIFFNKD

CC(C)(Nc1ccc(Cl)c(S(=O)(=O)N2CCOCC2)c1)C(=O)Nc1ccc(F)c(Cl)c1 [W-991]
AEF concentration at which protection to PfSTART1 aggregation was elicited [1]: 19-21 % AEF | shape/sphericity of the PVM of newly invaded merozoites ([2]; p = 0.045 at 15 min): remained spherical | mean vacuole surface area and volume of the PVM ([2]; p = 0.109, p = 0.129): reduced in W-991 but this did not reach significance
